Source: the supplement of paper PMC12137928
Structures can show the parent of a compound that is named as a salt.

Test system: HCT116
Conditions: 72 h
How it was run: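 HCT116 cells went into 1536-well plates at 250 per well. CellTiter-Glo luminescence was expressed relative to vehicle (0%) and positive control (-100%) and then pattern-corrected. Both IC50 and maximal efficacy were taken from four-parameter Hill fits.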

Row | Compound | IC50 cell viability (ICRF193 0 nM) | IC50 cell viability (ICRF193 200 nM)
1 | Cc1ccc(C2(O)CCN(CCCC(=O)c3ccc(F)cc3)CC2)cc1 [Moperone] | > 45.8 µM | > 45.8 µM
2 | CNC(=O)c1c(I)c(NC(C)=O)c(I)c(C(=O)O)c1I [Iothalamate sodium] | > 45.8 µM | > 45.8 µM
3 | CCOC(=O)[C@H](CCc1ccccc1)N[C@H]1CCCN2CCC[C@@H](C(=O)O)N2C1=O [Cilazapril] | > 45.8 µM | > 45.8 µM
4 | CCN(C)C(=O)Oc1cccc([C@H](C)N(C)C)c1 [Rivastigmine tartrate] | > 45.8 µM | > 45.8 µM
5 | FCOC(C(F)(F)F)C(F)(F)F [Sevoflurane] | > 45.8 µM | > 45.8 µM
6 | CC(=O)OCC(=O)[C@@]1(O)[C@H](C)C[C@H]2[C@@H]3C[C@H](F)C4=CC(=O)C=C[C@]4(C)[C@H]3[C@@H](O)C[C@@]21C [Paramethasone acetate] | > 45.8 µM | > 45.8 µM
7 | CCC(C)(C)OC(=O)N[C@@H](Cc1c[nH]c2ccccc12)C(=O)N[C@@H](CCSC)C(=O)N[C@@H](CC(=O)O)C(=O)N[C@@H](Cc1ccccc1)C(N)=O [Amogastrin] | > 45.8 µM | > 45.8 µM
8 | CC[C@H]1[C@@H](O)[C@@H]2[C@H](CC[C@]3(C)[C@@H]([C@H](C)CCC(=O)O)CC[C@@H]23)[C@@]2(C)CC[C@@H](O)C[C@@H]12 [INT-747 (Obeticholic acid)] | > 45.8 µM | > 45.8 µM
9 | CC1(C)S[C@@H]2[C@H](/N=C/N3CCCCCC3)C(=O)N2[C@H]1C(=O)O [Amdinocillin] | > 45.8 µM | > 45.8 µM
10 | CC(C)(C)C(=O)Oc1ccc(S(=O)(=O)Nc2ccccc2C(=O)NCC(=O)O)cc1 [Sivelestat sodium hydrate] | > 45.8 µM | > 45.8 µM
11 | Cc1nc2n(c(=O)c1CCN1CCC(c3noc4cc(F)ccc34)CC1)CCCC2O (stereo not drawn) [Paliperidone] | > 45.8 µM | > 45.8 µM
12 | CC(C)NCC(O)c1ccccc1Cl (stereo not drawn) [Clorprenaline hydrochloride] | > 45.8 µM | > 45.8 µM
13 | C[C@@H]1C[C@H]2[C@@H]3CCC4=CC(=O)C=C[C@]4(C)[C@@]3(F)[C@@H](O)C[C@]2(C)[C@H]1C(=O)CO [Desoximetasone] | > 45.8 µM | > 45.8 µM
14 | CCC(=O)O[C@]1(C(=O)CCl)[C@@H](C)C[C@H]2[C@@H]3CCC4=CC(=O)C=C[C@]4(C)[C@@]3(F)[C@@H](O)C[C@@]21C [Clobetasol propionate] | > 45.8 µM | > 45.8 µM
15 | CC(C)NCC(O)c1ccc(O)c(O)c1 (stereo not drawn) [Isoprenaline hydrochloride] | > 45.8 µM | > 45.8 µM
16 | CCN(CC)CCNC(C(=O)OCCC(C)C)c1ccccc1 (stereo not drawn) [Camylofin] | > 45.8 µM | > 45.8 µM
17 | NCCCC[C@@H]1NC(=O)[C@@H](Cc2c[nH]c3ccccc23)NC(=O)[C@H](c2ccccc2)NC(=O)[C@@H]2C[C@@H](OC(=O)NCCN)CN2C(=O)[C@H](Cc2ccccc2)NC(=O)[C@H](Cc2ccc(OCc3ccccc3)cc2)NC1=O [Pasireotide (ditrifluoroacetate)] | > 45.8 µM | > 45.8 µM
18 | Nc1cc(-c2ccncc2)c[nH]c1=O [Amrinone] | > 45.8 µM | > 45.8 µM
19 | CC(=O)N(CC(C)C(=O)O)c1c(I)cc(I)c(N)c1I (stereo not drawn) [Iocetamic acid] | > 45.8 µM | > 45.8 µM
20 | CN1C(=O)[C@]23C[C@H]4C(C)(C)[C@]5(CNc6c5ccc5c6OC=CC(C)(C)O5)C[C@@]41CN2CC[C@@]3(C)O [Derquantel] | > 45.8 µM | > 45.8 µM

Row | Compound | IC50 cell viability (ICRF193 0 nM) | IC50 cell viability (ICRF193 200 nM)
21 | CCCCCCC(=O)O[C@H]1CC[C@H]2[C@@H]3CCc4cc(O)ccc4[C@H]3CC[C@]12C [Estradiol enanthate] | > 45.8 µM | > 45.8 µM
22 | CCCCOc1ccc(CC(=O)NO)cc1 [Bufexamac] | > 45.8 µM | > 45.8 µM
23 | CCOC(=O)c1cncn1[C@H](C)c1ccccc1 [Etomidate] | > 45.8 µM | > 45.8 µM
24 | CCOc1ccccc1OCCN[C@H](C)Cc1ccc(OC)c(S(N)(=O)=O)c1 [Tamsulosin hydrochloride] | > 45.8 µM | > 45.8 µM
25 | Cc1ccc(-c2ncc(Cl)cc2-c2ccc(S(C)(=O)=O)cc2)cn1 [Etoricoxib] | > 45.8 µM | > 45.8 µM
26 | CCN(Cc1ccncc1)C(=O)C(CO)c1ccccc1 (stereo not drawn) [Tropicamide] | > 45.8 µM | > 45.8 µM
27 | Cc1ncc(C[n+]2csc(CCOP(=O)(O)OP(=O)(O)O)c2C)c(N)n1 [Thiamine pyrophosphate] | > 45.8 µM | > 45.8 µM
28 | CN[C@H](CC(C)C)C(=O)N[C@H]1C(=O)N[C@@H](CC(N)=O)C(=O)N[C@H]2C(=O)N[C@H]3C(=O)N[C@H](C(=O)N[C@H](C(=O)O)c4cc(O)cc(O)c4-c4cc3ccc4O)[C@H](O)c3ccc(c(Cl)c3)Oc3cc2cc(c3O[C@@H]2O[C@H](CO)[C@@H](O)[C@H](O)[C@H]2O[C@H]2C[C@](C)(N)[C@H](O)[C@H](C)O2)Oc2ccc(cc2Cl)[C@H]1O [Vancomycin hydrochloride] | > 45.8 µM | > 45.8 µM
29 | O=NN(CCCl)C(=O)NC1CCCCC1 [Lomustine] | > 45.8 µM | > 45.8 µM
30 | CCN(CC)C(=O)C1(c2ccccc2)CC1CN (stereo not drawn) [Milnacipran hydrochloride] | > 45.8 µM | > 45.8 µM
31 | NCc1ccccc1CC(=O)N[C@@H]1C(=O)N2C(C(=O)O)=C(CSc3nnnn3CC(=O)O)CS[C@H]12 [Ceforanide] | > 45.8 µM | > 45.8 µM
32 | CC(C)NCC(O)COc1ccc(COCCOC(C)C)cc1 (stereo not drawn) [Bisoprolol fumarate] | > 45.8 µM | > 45.8 µM
33 | C#C[C@]1(O)CC[C@H]2[C@@H]3CCC4=CCCC[C@@H]4[C@H]3CC[C@@]21C [Lynestrenol] | > 45.8 µM | > 45.8 µM
34 | CNC(C)(C)Cc1ccccc1 [Mephentermine hemisulfate] | > 45.8 µM | > 45.8 µM
35 | CC[N+](C)(CC)CCOC(=O)C(O)(c1ccccc1)C1CCCCC1 (stereo not drawn) [Oxyphenonium bromide] | > 45.8 µM | > 45.8 µM
36 | N[C@H](Cc1c[nH]cn1)C(=O)O [D-HISTIDINE] | > 45.8 µM | > 45.8 µM
37 | CC1=C(/C=C/C(C)=C/C=C/C(C)=C/C=C/C=C(C)/C=C/C=C(C)/C=C/C2=C(C)C[C@@H](O)CC2(C)C)C(C)(C)C[C@H](O)C1 [Zeaxanthin] | > 45.8 µM | > 45.8 µM
38 | NS(=O)(=O)c1cc(-c2nnn[nH]2)c(NCc2cccs2)cc1Cl [Azosemide] | > 45.8 µM | > 45.8 µM
39 | CCN1CCN(C(=O)N[C@@H](C(=O)N[C@@H]2C(=O)N3C(C(=O)O)=C(CSc4nnnn4C)CS[C@H]23)c2ccc(O)cc2)C(=O)C1=O [Cefoperazone sodium] | > 45.8 µM | > 45.8 µM
40 | CCCCC(CC)COC(=O)C=Cc1ccc(OC)cc1 (stereo not drawn) [Octinoxate] | > 45.8 µM | > 45.8 µM

Row | Compound | IC50 cell viability (ICRF193 0 nM) | IC50 cell viability (ICRF193 200 nM)
41 | O=S1(=O)OC(c2ccc(O)cc2)(c2ccc(O)cc2)c2ccccc21 [Phenol red] | > 45.8 µM | > 45.8 µM
42 | CCC(Oc1ccccc1)C(=O)N[C@@H]1C(=O)N2[C@@H]1SC(C)(C)[C@@H]2C(=O)O (stereo partly drawn) [Propicillin] | > 45.8 µM | > 45.8 µM
43 | Nc1ccc(C(=O)Oc2ccccc2)c(O)c1 [Phenyl 4-aminosalicylate] | > 45.8 µM | > 45.8 µM
44 | CN1C(C(=O)Nc2ccccn2)=C(O)c2sccc2S1(=O)=O [Tenoxicam] | > 45.8 µM | > 45.8 µM
45 | CC/C=C(\C(=O)N[C@@H]1C(=O)N2C(C(=O)OCOC(=O)C(C)(C)C)=C(COC(N)=O)CS[C@H]12)c1csc(N)n1 [Cefcapene pivoxil hydrochloride] | > 45.8 µM | > 45.8 µM
46 | C/C(=N\O)C(C)NCC(C)(C)CNC(C)/C(C)=N/O (stereo not drawn) [Exametazime] | > 45.8 µM | > 45.8 µM
47 | Nc1cc(Cl)c(NC2=NCCN2)c(Cl)c1 [p-Aminoclonidine hydrochloride] | > 45.8 µM | > 45.8 µM
48 | CN1C(CCl)Nc2cc(Cl)c(S(N)(=O)=O)cc2S1(=O)=O (stereo not drawn) [Methyclothiazide] | > 45.8 µM | > 45.8 µM
49 | CCC1(C)CC(=O)NC(=O)C1 [Bemegride] | > 45.8 µM | > 45.8 µM
50 | CC[C@H]1[C@@H]2C[C@H]3[C@@H]4N(C)c5ccccc5[C@]45C[C@@H]([C@@H]2[C@H]5O)N3[C@@H]1O [Ajmaline] | > 45.8 µM | > 45.8 µM
51 | CN1CCCN=C1COC(=O)C(O)(c1ccccc1)C1CCCCC1 (stereo not drawn) [Oxyphencyclimine hydrochloride] | > 45.8 µM | > 45.8 µM
52 | Nc1c(I)cc(I)c(C(=O)N(CCC(=O)O)c2ccccc2)c1I [Iobenzamic acid] | > 45.8 µM | > 45.8 µM
53 | CC(O)COc1ccccc1 (stereo not drawn) [1-Phenoxy-2-propanol] | > 45.8 µM | > 45.8 µM
54 | Cc1[nH]cnc1C[C@H]1CCc2c(C)c3ccccc3n2C1=O [Fabesetron] | > 45.8 µM | > 45.8 µM
55 | Nc1ccc(S(=O)(=O)Nc2nccs2)cc1 [Sulfathiazole] | > 45.8 µM | > 45.8 µM
56 | CN(C)c1nc(N(C)C)nc(N(C)C)n1 [Altretamine] | > 45.8 µM | > 45.8 µM
57 | CC1(C)S[C@@H]2[C@H](NC(=O)C(C(=O)Oc3ccc4c(c3)CCC4)c3ccccc3)C(=O)N2[C@H]1C(=O)O (stereo partly drawn) [Carbenicillin indanyl] | > 45.8 µM | > 45.8 µM
58 | O=C(N[C@H](CO)[C@H](O)c1ccc([N+](=O)[O-])cc1)C(Cl)Cl [Chloramphenicol] | > 45.8 µM | > 45.8 µM
59 | Cc1ccc(Sc2ccccc2N2CCNCC2)c(C)c1 [Brintellix] | > 45.8 µM | > 45.8 µM
